Assay results from paper PMC5220300, “Variant Ionotropic Receptors in the Malaria Vector Mosquito Anopheles gambiae Tuned to Amines and Carboxylic Acids” (Scientific Reports, 2017).

Experiments:
Type in all cases: cell-based
[1] = target: T1, AgIR41c (Anopheles coluzzii, UniProt A0A6E8W7H2); assay: two-electrode voltage clamp, Xenopus oocytes, concentration-response
T1 construct: with AgIr25a and AgIr76b (co-receptors)

[2] = target: T2, AgIR41a (Anopheles coluzzii, UniProt A0A6E8V5R5); assay: as above
T2 construct: with AgIr25a and AgIr76b (co-receptors)
T2 sequence (A0A6E8V5R5 1-637): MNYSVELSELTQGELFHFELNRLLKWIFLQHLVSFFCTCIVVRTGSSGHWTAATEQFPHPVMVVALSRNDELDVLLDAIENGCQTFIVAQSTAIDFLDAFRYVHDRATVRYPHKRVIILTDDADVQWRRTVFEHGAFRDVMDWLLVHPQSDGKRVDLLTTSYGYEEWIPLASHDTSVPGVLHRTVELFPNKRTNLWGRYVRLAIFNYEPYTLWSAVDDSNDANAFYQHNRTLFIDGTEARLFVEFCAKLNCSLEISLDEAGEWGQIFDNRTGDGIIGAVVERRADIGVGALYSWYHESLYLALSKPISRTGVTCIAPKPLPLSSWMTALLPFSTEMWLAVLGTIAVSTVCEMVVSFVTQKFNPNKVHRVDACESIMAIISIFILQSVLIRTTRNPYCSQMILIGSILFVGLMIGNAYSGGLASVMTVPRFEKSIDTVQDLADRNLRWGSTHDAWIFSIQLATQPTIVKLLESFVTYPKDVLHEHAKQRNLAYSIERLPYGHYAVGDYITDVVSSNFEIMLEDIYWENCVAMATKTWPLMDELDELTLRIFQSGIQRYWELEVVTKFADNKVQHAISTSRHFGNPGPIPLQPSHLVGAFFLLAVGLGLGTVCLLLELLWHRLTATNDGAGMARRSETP
T2 sequence (A0A1S4H3H9 28-946 partner): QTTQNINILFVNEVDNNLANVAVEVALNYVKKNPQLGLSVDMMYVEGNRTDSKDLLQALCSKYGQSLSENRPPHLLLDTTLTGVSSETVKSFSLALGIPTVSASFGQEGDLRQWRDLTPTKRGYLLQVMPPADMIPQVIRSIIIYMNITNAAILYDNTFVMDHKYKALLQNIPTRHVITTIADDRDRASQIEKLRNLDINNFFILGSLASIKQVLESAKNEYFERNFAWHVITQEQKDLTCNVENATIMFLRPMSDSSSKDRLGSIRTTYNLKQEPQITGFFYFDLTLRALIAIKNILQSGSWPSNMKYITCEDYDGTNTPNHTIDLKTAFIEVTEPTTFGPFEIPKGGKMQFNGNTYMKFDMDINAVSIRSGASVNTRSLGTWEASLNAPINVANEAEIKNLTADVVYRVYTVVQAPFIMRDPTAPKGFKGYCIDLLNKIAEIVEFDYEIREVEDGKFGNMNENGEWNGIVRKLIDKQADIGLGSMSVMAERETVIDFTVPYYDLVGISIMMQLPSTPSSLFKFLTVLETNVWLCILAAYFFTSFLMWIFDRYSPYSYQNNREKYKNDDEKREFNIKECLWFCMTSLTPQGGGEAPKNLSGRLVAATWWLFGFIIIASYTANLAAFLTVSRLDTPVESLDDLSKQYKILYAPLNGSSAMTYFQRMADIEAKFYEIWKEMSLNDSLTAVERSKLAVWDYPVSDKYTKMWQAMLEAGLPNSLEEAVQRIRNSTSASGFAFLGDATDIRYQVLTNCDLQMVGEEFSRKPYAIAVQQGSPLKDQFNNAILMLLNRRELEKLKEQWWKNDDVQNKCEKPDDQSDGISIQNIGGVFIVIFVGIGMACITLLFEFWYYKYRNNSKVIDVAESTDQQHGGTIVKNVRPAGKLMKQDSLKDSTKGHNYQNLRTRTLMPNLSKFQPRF
T2 sequence (A0A6E8W6Y5 1-657 partner): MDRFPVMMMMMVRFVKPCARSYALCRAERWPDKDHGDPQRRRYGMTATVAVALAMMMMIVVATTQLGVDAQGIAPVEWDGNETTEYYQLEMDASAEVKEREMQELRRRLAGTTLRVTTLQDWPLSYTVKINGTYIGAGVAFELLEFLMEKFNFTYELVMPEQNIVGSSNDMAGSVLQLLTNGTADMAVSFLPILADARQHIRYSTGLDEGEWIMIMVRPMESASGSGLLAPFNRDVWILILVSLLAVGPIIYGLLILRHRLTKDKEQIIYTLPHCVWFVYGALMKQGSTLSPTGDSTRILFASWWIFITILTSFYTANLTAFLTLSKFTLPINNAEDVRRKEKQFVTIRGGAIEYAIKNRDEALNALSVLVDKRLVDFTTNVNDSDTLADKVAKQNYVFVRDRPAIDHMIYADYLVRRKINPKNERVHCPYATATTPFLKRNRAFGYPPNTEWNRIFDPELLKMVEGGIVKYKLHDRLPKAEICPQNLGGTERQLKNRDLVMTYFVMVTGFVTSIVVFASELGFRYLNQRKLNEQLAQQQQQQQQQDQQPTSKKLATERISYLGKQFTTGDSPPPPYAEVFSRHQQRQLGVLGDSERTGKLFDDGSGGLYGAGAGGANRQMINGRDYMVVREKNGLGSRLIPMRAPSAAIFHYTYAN

[3] = target: T3, AgIR75k (Anopheles coluzzii, UniProt A0A6E8VT06); assay: two-electrode voltage clamp, Xenopus oocytes, […] single concentration
T3 construct: with AgIr8a (co-receptor)
T3 sequence (A0A6E8VT06 26-675): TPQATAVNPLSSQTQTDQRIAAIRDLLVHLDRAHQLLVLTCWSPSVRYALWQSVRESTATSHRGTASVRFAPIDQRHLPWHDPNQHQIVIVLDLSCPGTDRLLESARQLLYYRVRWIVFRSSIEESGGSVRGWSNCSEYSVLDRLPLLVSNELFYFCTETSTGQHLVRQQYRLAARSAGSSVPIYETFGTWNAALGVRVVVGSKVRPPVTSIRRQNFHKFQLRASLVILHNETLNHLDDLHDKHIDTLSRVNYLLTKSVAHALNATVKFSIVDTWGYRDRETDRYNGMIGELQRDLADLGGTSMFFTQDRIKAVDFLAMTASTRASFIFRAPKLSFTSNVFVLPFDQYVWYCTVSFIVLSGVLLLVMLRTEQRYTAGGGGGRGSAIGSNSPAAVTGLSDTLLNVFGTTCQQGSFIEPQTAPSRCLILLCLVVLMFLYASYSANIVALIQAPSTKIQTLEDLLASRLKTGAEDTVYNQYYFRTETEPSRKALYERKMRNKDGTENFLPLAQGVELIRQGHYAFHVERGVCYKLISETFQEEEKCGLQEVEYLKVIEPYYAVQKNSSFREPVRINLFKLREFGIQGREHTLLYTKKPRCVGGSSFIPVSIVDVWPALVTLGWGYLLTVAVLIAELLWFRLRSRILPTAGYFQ
T3 sequence (A0A6E8W0A6 1-828 partner): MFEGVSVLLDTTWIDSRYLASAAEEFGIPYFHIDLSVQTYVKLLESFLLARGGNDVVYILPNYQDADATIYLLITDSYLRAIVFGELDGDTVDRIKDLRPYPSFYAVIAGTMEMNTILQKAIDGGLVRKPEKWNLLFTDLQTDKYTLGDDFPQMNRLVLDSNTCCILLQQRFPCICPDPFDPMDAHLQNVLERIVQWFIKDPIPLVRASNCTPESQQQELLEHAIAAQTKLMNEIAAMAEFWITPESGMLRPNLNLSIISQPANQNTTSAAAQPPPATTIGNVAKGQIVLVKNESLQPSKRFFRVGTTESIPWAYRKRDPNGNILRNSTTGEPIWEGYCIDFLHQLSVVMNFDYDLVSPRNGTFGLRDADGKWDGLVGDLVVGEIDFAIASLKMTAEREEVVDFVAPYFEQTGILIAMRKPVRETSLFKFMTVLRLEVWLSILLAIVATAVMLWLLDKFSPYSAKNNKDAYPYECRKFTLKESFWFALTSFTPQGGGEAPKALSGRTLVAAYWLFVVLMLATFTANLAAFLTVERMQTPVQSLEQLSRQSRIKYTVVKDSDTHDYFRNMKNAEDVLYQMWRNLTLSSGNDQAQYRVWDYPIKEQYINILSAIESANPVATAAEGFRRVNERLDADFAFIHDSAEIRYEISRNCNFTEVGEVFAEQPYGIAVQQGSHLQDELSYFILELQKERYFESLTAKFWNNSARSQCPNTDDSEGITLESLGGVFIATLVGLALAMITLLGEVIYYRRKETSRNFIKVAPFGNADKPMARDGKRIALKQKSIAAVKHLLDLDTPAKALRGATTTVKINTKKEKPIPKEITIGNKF

[4] = target: T3, AgIR75k; assay: two-electrode voltage clamp, Xenopus oocytes, concentration-response

T1 sequence (A0A6E8W7H2 1-669, one chain of several): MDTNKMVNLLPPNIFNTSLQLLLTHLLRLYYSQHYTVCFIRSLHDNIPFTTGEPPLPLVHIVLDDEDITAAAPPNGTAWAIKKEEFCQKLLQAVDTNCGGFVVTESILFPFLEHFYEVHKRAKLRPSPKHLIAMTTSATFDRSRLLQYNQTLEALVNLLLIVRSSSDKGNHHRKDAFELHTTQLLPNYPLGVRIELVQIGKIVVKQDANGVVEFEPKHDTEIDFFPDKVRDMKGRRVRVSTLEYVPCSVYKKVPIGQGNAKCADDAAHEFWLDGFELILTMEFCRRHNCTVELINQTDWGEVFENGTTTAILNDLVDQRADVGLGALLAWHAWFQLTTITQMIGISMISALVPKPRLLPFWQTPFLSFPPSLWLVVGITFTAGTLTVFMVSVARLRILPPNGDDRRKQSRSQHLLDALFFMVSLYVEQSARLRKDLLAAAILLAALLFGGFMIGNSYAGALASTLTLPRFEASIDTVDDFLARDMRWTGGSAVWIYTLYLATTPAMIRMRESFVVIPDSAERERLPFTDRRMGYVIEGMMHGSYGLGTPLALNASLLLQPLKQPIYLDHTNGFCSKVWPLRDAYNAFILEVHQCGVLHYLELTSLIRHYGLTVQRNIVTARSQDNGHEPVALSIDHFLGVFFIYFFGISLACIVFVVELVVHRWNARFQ

For `C1CCNC1` [pyrrolidine], the EC50 [1] was 3.4 µM and the EC50 [2] was 110 µM.

For `CCCCCCCC(=O)O` [octanoic acid], the “two-electrode voltage clamp, Xenopus oocytes, 10^-4 M single concentration” value [3] was “octanoic and nonanoic acids elicited the greatest inward currents”.

In the case of `CCCCCCCCC(=O)O` [nonanoic acid], the EC50 [4] is reported as 35 µM.
